Measurements from PubChem BioAssay AID248 (DTP/NCI, 2004).
Where “and” joins values, the source holds several entries; their conditions need not be identical. Equal values may be shown once. Toxic doses and inconclusive results are not listed. Rule as the data show it: active = T/C of 150% or more; inactive = T/C below 125%.

Test system: L1210 leukemia ip in BDF1 mice, survival T/C
Assay: NCI In Vivo Anticancer Drug Screen. Data for tumor model L1210 Leukemia (intraperitoneal) in B6D2F1 (BDF1) mice
Conditions: endpoint: mean survival time, higher = longer survival
Method in brief: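 Read-out is survival time, reported as the treated-group measurement over the vehicle-control measurement.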

[1] = dose: 100.0 mg/kg/injection, schedule: Q01DX001 (ip), vehicle: saline with Tween-80
[2] = dose: 100.0 mg/kg/injection, schedule: Q01DX009 (ip), vehicle: Klucel (hydroxypropylcellulose) (HPC)
[3] = dose: 100.0 mg/kg/injection, schedule: Q04DX003 (ip), vehicle: Klucel (hydroxypropylcellulose) (HPC)
[4] = dose: 200.0 mg/kg/injection, schedule: Q01DX001 (ip), vehicle: saline with Tween-80
[5] = dose: 200.0 mg/kg/injection, schedule: Q01DX009 (ip), vehicle: Klucel (hydroxypropylcellulose) (HPC)
[6] = dose: 200.0 mg/kg/injection, schedule: Q04DX003 (ip), vehicle: Klucel (hydroxypropylcellulose) (HPC)
[7] = dose: 400.0 mg/kg/injection, schedule: Q01DX001 (ip), vehicle: saline with Tween-80
[8] = dose: 400.0 mg/kg/injection, schedule: Q01DX009 (ip), vehicle: Klucel (hydroxypropylcellulose) (HPC)
[9] = dose: 400.0 mg/kg/injection, schedule: Q04DX003 (ip), vehicle: Klucel (hydroxypropylcellulose) (HPC)
[10] = dose: 100.0 mg/kg/injection, schedule: Q04DX002 (ip), vehicle: Klucel (hydroxypropylcellulose) (HPC)
[11] = dose: 100.0 mg/kg/injection, schedule: Q04DX002 (ip), vehicle: saline
[12] = dose: 100.0 mg/kg/injection, schedule: Q04DX003 (ip), vehicle: saline with Tween-80
[13] = dose: 200.0 mg/kg/injection, schedule: Q04DX002 (ip), vehicle: saline
[14] = dose: 200.0 mg/kg/injection, schedule: Q04DX003 (ip), vehicle: saline with Tween-80
[15] = dose: 400.0 mg/kg/injection, schedule: Q04DX002 (ip), vehicle: saline
[16] = dose: 400.0 mg/kg/injection, schedule: Q04DX003 (ip), vehicle: saline with Tween-80
[17] = dose: 25.0 mg/kg/injection, schedule: Q01DX009 (ip), vehicle: water
[18] = dose: 50.0 mg/kg/injection, schedule: Q01DX009 (ip), vehicle: water
[19] = dose: 100.0 mg/kg/injection, schedule: Q01DX009 (ip), vehicle: water
[20] = dose: 200.0 mg/kg/injection, schedule: Q01DX009 (ip), vehicle: water
[21] = dose: 100.0 mg/kg/injection, schedule: Q01DX009 (ip), vehicle: saline with Tween-80
[22] = dose: 200.0 mg/kg/injection, schedule: Q01DX009 (ip), vehicle: saline with Tween-80
[23] = dose: 50.0 mg/kg/injection, schedule: Q01DX009 (ip), vehicle: saline with Tween-80
[24] = dose: 100.0 mg/kg/injection, schedule: Q01DX001 (ip), vehicle: Klucel (hydroxypropylcellulose) (HPC)
[25] = dose: 50.0 mg/kg/injection, schedule: Q01DX001 (ip), vehicle: Klucel (hydroxypropylcellulose) (HPC)

Measured: T/C

COC1(OC)C2(Cl)CCC1(Cl)C(Cl)=C2Cl
inactive: dose: 100.0 mg/kg/injection, schedule: Q01DX001 (ip), vehicle: other 98 % of control | [1] 100 % of control | [2] 100 % of control | [3] 102 % of control | dose: 200.0 mg/kg/injection, schedule: Q01DX001 (ip), vehicle: other 98 % of control | [4] 100 % of control | [5] 103 % of control | [6] 94 % of control | dose: 400.0 mg/kg/injection, schedule: Q01DX001 (ip), vehicle: other 92 % of control | [7] 97 % of control | [8] 90 % of control | [9] 96 % of control

CCC1=C/C(=C/c2ccc([N+](=O)[O-])cc2)C(=O)S1
inactive: [1] 87 % of control | [4] 87 % of control | [7] 87 % of control

OC1CN(C2CCCCC2)C1
inactive: dose: 100.0 mg/kg/injection, schedule: Q04DX003 (ip), vehicle: saline 98 % of control

CC(c1ccccc1O)C1CCCCC1N=O (stereo not drawn)
inactive: [10] 105 % of control | dose: 200.0 mg/kg/injection, schedule: Q04DX002 (ip), vehicle: Klucel (hydroxypropylcellulose) (HPC) 102 % of control | dose: 400.0 mg/kg/injection, schedule: Q04DX002 (ip), vehicle: Klucel (hydroxypropylcellulose) (HPC) 98 % of control

O=C(Cc1ccc([N+](=O)[O-])cc1)NCCc1ccc2c(c1)OCO2
inactive: dose: 100.0 mg/kg/injection, schedule: Q01DX001 (ip), vehicle: saline 96 % of control | dose: 200.0 mg/kg/injection, schedule: Q01DX001 (ip), vehicle: saline 102 % of control | dose: 400.0 mg/kg/injection, schedule: Q01DX001 (ip), vehicle: saline 100 % of control

Cc1n(CCBr)c([N+](=O)[O-])c[n+]1C1N=C(c2ccccc2)c2cc(Cl)ccc2NC1=O (stereo not drawn)
inactive: [3] 101 % of control | [6] 94 % of control

Cc1cccc(Cl)c1NC(=O)c1ccc(C(=O)Nc2c(C)cccc2Cl)cc1
inactive: [2] 87 % of control | [5] 94 % of control | [8] 94 % of control

Cn1[nH]c(=O)[nH]c1=O
inactive: [11] 103 % of control | [12] 98 % of control and 87 % of control | [13] 100 % of control | [14] 93 % of control | [15] 103 % of control | [16] 90 % of control

O=C1C=C(S(=O)(=O)c2ccccc2)C(=O)c2ccccc21
inactive: dose: 75.0 mg/kg/injection, schedule: Q01DX001 (ip), vehicle: other 93 % of control | dose: 150.0 mg/kg/injection, schedule: Q01DX001 (ip), vehicle: other 98 % of control

CCCCn1cccc1
inactive: [12] 106 % of control | [14] 95 % of control

O=C(NCCc1ccccc1)Nc1cc([N+](=O)[O-])ccc1F
inactive: [3] 94 % of control | [6] 96 % of control | [9] 102 % of control

CCOC(=O)Nc1cncc(NC(=O)OCC)n1
inactive: dose: 6.25 mg/kg/injection, schedule: Q01DX009 (ip), vehicle: water 96 % of control | dose: 12.5 mg/kg/injection, schedule: Q01DX009 (ip), vehicle: water 90 % of control | [17] 117 % of control and 91 % of control | [18] 93 % of control and 91 % of control | [19] 96 % of control and 101 % of control | [20] 111 % of control

Cn1c2c(c3ccccc31)C(=C(c1ccccc1)c1ccccc1)c1ccccc1-2
inactive: dose: 100.0 mg/kg/injection, schedule: Q04DX002 (ip), vehicle: saline with Tween-80 87 % of control | dose: 200.0 mg/kg/injection, schedule: Q04DX002 (ip), vehicle: saline with Tween-80 87 % of control

COc1cc(CC2=NCCc3cc(OC)c(OCc4ccccc4)cc32)ccc1OCc1ccccc1
inactive: [21] 94 % of control | [22] 100 % of control

COCC(C)C=O (stereo not drawn)
inactive: [23] 91 % of control | [21] 91 % of control | [22] 94 % of control

Nc1ccn(CC(=O)N2CCOCC2)c(=O)n1
inactive: [17] 93 % of control | [18] 87 % of control | [19] 87 % of control | [20] 93 % of control | dose: 400.0 mg/kg/injection, schedule: Q01DX009 (ip), vehicle: water 88 % of control

CCOC(=O)C[S][Sn]([Cl])([Cl])[S]CC(=O)OCC
inactive: [1] 100 % of control | [4] 92 % of control | [7] 87 % of control

COc1ccc(Nc2cc(C)nc(N)n2)cc1
inactive: dose: 25.0 mg/kg/injection, schedule: Q01DX Z (ip), vehicle: methylcellulose (MC) 97 % of control | dose: 50.0 mg/kg/injection, schedule: Q01DX Z (ip), vehicle: methylcellulose (MC) 105 % of control

NC(=O)NC(=O)Nc1ccccc1
inactive: [11] 96 % of control | [13] 96 % of control | [15] 111 % of control

CCC(O)C[As](=O)(O)c1ccc(Cl)cc1 (stereo not drawn)
inactive: dose: 1.56 mg/kg/injection, schedule: Q01DX009 (ip), vehicle: saline with Tween-80 97 % of control

CC1CNC2C(C)C3C(CC4C5CCC6CC(N=Cc7ccccc7)C(O)CC6(C)C5CCC43C)OC2(O)C1 (stereo not drawn)
inactive: [24] 87 % of control | dose: 400.0 mg/kg/injection, schedule: Q01DX001 (ip), vehicle: Klucel (hydroxypropylcellulose) (HPC) 91 % of control

CC1(C)CN1Sc1ccc([N+](=O)[O-])cc1 (stereo not drawn)
inactive: dose: 25.0 mg/kg/injection, schedule: Q04DX002 (ip), vehicle: Klucel (hydroxypropylcellulose) (HPC) 107 % of control | dose: 50.0 mg/kg/injection, schedule: Q04DX002 (ip), vehicle: Klucel (hydroxypropylcellulose) (HPC) 103 % of control | [10] 96 % of control and 107 % of control

O=c1oc(-c2ccccc2Cl)nc2cc(Cl)ccc12
inactive: [23] 96 % of control | [21] 100 % of control

Cc1nc(N)[nH]c(=O)c1CCCN=Cc1cccc([N+](=O)[O-])c1
inactive: dose: 12.5 mg/kg/injection, schedule: Q01DX001 (ip), vehicle: Klucel (hydroxypropylcellulose) (HPC) 110 % of control | dose: 25.0 mg/kg/injection, schedule: Q01DX001 (ip), vehicle: Klucel (hydroxypropylcellulose) (HPC) 103 % of control | [25] 97 % of control

CC1=NCCN=C(C)CC(C)(C)[N-]CC[N-]C(C)(C)C1.[Cl-].[Cl-].[Co+3].[O-][Cl+3]([O-])([O-])O
inactive: dose: 150.0 mg/kg/injection, schedule: Q04DX002 (ip), vehicle: Klucel (hydroxypropylcellulose) (HPC) 97 % of control | dose: 300.0 mg/kg/injection, schedule: Q04DX002 (ip), vehicle: Klucel (hydroxypropylcellulose) (HPC) 94 % of control

O=Nc1c2cc3ccccc3[nH]c-2c2ccccc12
inactive: [25] 95 % of control | [24] 93 % of control | dose: 200.0 mg/kg/injection, schedule: Q01DX001 (ip), vehicle: Klucel (hydroxypropylcellulose) (HPC) 93 % of control

CCCC(=O)N1CCCC1
inactive: [11] 107 % of control | [13] 103 % of control | [15] 111 % of control

CN(C)C(=O)Nc1cccc(OC(=O)NC2CCCCCCC2)c1
inactive: [12] 91 % of control | [14] 100 % of control | [16] 96 % of control
